# Measured values from patent publication US11180455B2, “Compounds for the treatment of pain” (priority 2018, dated 2021).
# Read-outs that look alike come from different tables or passages of the source.
# Legend:
# Male Sprague-Dawley rats [1] = assay type: in vivo; settings: rat
# Male Sprague-Dawley rats [2] = settings: maximum pCO2 within 2 hours of administration, rat, subcutaneous
# human μ opioid receptor = human μ opioid receptor (Homo sapiens (Human), UniProt P35372); assay: Alternate functional activity ([35S]GTPγS binding, SPA) assay; assay type: biochemical; settings: alternate [35S]GTPγS binding assay (SPA beads), CHO cell membranes expressing human μ opioid receptor
# Method: The [^35S]GTPγS assay measures the functional properties of a compound by quantifying the level of G-protein activation following agonist binding in studies using stably transfected cells, and is considered to be a measure of the efficacy of a compound. Membranes from CHO (Chinese Hamster Ovary) cells that stably expressed one type of the cloned human opioid receptor human were used in the experiments. The assay buffer consisted of 50 mM Tris-HCl, pH 7.4, 3 mM MgCl2, 0.2 mM EGTA, 5 μM GDP, and 100 mM NaCl. CHO cell membranes stably expressing the human p opioid receptor were pre-incubated with scintillation proximity assay beads from PerkinElmer® (WGA PVT SPA) for 30 minutes, at 8 µg membrane and 350 µg beads in a volume of 0.1 mL per reaction. In a final volume of 0.2 mL, 11 different concentrations of each test compound were incubated with the membrane-SPA bead mixture and a final concentration of 0.020 nM [35S]GTPγS for 1.5 hours with gentle shaking. Reactions were then incubated for 5 hours. Data are the mean EC50 values±S.E.M. EC50 values (nM) for compounds 12, 16, 19, 20, 149, 151, 152, 157, 160, 161, 164-169, 172, 173, 180-197, and 199-207 are shown in Table 1.
compound,measurement,setting,value
"CO[C@@]12CC[C@@]3(C[C@@H]1[C@](C)(O)C(C)(C)C)[C@H]1Cc4ccc(O)c5c4[C@@]3(CCN1CC1CC1)[C@H]2O5 [Buprenorphine, buprenorphine, reference compound]",MEMO SC CFA,Male Sprague-Dawley rats [1]; in vivo,0.1 mg/kg
"COC1(c2cccc(C(N)=O)c2)C2CCCC1CN(C1CC3(COC3)C1)C2.O=C(O)C[C@H](O)C(=O)O [Compound 133, 3-((1R,5S,9r)-9-methoxy-3-(2-oxaspiro[3.3]heptan-6-yl)-3-azabicyclo[3.3.1]nonan-9-yl)benzamide (S)-2-hydroxysuccinate]",<60 mmHg @ 10X CFA MEMD,Male Sprague-Dawley rats [2],+ (resulted in a maximum pCO2 value of less than 60 mmHg within 2 hours of administration)
CCOC1(c2cc(C(N)=O)ccc2F)C2CCCC1CN(C)C2 (stereo not drawn) [Compound 194],EC50,human μ opioid receptor,10 to 75 nM
"CO[C@@]1(c2ccnc(C(N)=O)c2)[C@@H]2CCC[C@H]1CN(Cc1ncc(C)[nH]1)C2.Cl [Compound 153, 4-((1R,5S,9r)-9-methoxy-3-((5-methyl-1H-imidazol-2-yl)methyl)-3-azabicyclo[3.3.1]nonan-9-yl)picolinamide Hydrochloride]",MEMO SC CFA,"Male Sprague-Dawley rats [1]; minimum dose at which maximal reversal (MEMD) of weight bearing was achieved, subcutaneous administration",1 mg/kg
"CCOC1(c2cccc(C(N)=O)c2)C2CCCC1CNC2 [Compound 160, 3-((1R,5S,9r)-9-ethoxy-3-azabicyclo[3.3.1]nonan-9-yl)benzamide]",<60 mmHg @ 10X CFA MEMD,Male Sprague-Dawley rats [2],+ (resulted in a maximum pCO2 value of less than 60 mmHg within 2 hours of administration)
same,<60 mmHg @ 100X CFA MEMD,Male Sprague-Dawley rats [2]; 100X CFA MEMD dose,+ (resulted in a maximum pCO2 value of less than 60 mmHg within 2 hours of administration)
